Measured values published in ChEMBL document CHEMBL5370576, “Design, synthesis and biological evaluation of 2,4,6- trisubstituted triazine derivatives as new nonpeptide small-molecule SIRT5 inhibitors” (Bioorg Med Chem, 2023).
Activity calls are given as the source filed them. The calls are words filed in the database; no cut-off is given here.

Columns and labels:
[1] = target: T1, NAD-dependent protein deacylase sirtuin-5, mitochondrial (Homo sapiens, UniProt Q9NXA8); assay: Inhibition of human recombinant SIRT5 (34 to 269 residues) using Ac-Leu-Gly-Ser-Lys (Su)-AMC as fluorogenic substrate incubated for 2 hrs in presence of NAD+ by fluorescence based analysis
Target sequence in this assay (Q9NXA8 whole entry, the tested form may be a part): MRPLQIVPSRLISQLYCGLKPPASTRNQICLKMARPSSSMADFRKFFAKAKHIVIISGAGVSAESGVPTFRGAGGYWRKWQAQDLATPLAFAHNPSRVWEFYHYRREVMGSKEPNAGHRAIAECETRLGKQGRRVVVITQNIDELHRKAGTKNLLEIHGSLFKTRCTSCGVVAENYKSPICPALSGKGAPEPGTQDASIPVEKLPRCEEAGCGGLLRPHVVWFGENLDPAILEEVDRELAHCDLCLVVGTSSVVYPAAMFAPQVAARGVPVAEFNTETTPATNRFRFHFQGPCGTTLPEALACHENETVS

[2] = target: T1, NAD-dependent protein deacylase sirtuin-5, mitochondrial; assay: Inhibition of human recombinant SIRT5 (34 to 269 residues) using Ac-Leu-Gly-Ser-Lys (Su)-AMC as fluorogenic substrate incubated for 2 hrs in presence of NAD+ at 50 uM by fluorescence based analysis
Target sequence in this assay (Q9NXA8 whole entry, the tested form may be a part): as above

[3] = target: T1, NAD-dependent protein deacylase sirtuin-5, mitochondrial; assay: Inhibition of human recombinant SIRT5 (34 to 269 residues) using Ac-Leu-Gly-Ser-Lys (Su)-AMC as fluorogenic substrate incubated for 2 hrs in presence of NAD+ at 100 uM by fluorescence based analysis
Target sequence in this assay (Q9NXA8 whole entry, the tested form may be a part): as above

[4] = target: T1, NAD-dependent protein deacylase sirtuin-5, mitochondrial; assay: Inhibition of human recombinant SIRT5 (34 to 269 residues) using Ac-Leu-Gly-Ser-Lys (Su)-AMC as fluorogenic substrate incubated for 2 hrs in presence of NAD+ at 200 uM by fluorescence based analysis
Target sequence in this assay (Q9NXA8 whole entry, the tested form may be a part): as above

[5] = target: T1, NAD-dependent protein deacylase sirtuin-5, mitochondrial; assay: Inhibition of human recombinant SIRT5 (34 to 269 residues) using Ac-Leu-Gly-Ser-Lys (Su)-AMC as fluorogenic substrate incubated for 2 hrs in presence of NAD+ at 400 uM by fluorescence based analysis
Target sequence in this assay (Q9NXA8 whole entry, the tested form may be a part): as above

[6] = target: T1, NAD-dependent protein deacylase sirtuin-5, mitochondrial; assay: Inhibition of human recombinant SIRT5 (34 to 269 residues) using Ac-Leu-Gly-Ser-Lys (Su)-AMC as fluorogenic substrate incubated for 2 hrs in presence of NAD+ at 800 uM by fluorescence based analysis
Target sequence in this assay (Q9NXA8 whole entry, the tested form may be a part): as above

[7] = target: T1, NAD-dependent protein deacylase sirtuin-5, mitochondrial; assay: Competitive inhibition of human recombinant SIRT5 (34 to 269 residues) incubated for 2 hrs in presence of 11 uM of fluorogenic substrate Ac-Leu-Gly-Ser-Lys (Su)-AMC by fluorescence based analysis
[8] = target: T1, NAD-dependent protein deacylase sirtuin-5, mitochondrial; assay: Competitive inhibition of human recombinant SIRT5 (34 to 269 residues) incubated for 2 hrs in presence of 33 uM of fluorogenic substrate Ac-Leu-Gly-Ser-Lys (Su)-AMC by fluorescence based analysis
[9] = target: T1, NAD-dependent protein deacylase sirtuin-5, mitochondrial; assay: Competitive inhibition of human recombinant SIRT5 (34 to 269 residues) incubated for 2 hrs in presence of 100 uM of fluorogenic substrate Ac-Leu-Gly-Ser-Lys (Su)-AMC by fluorescence based analysis
[10] = target: T1, NAD-dependent protein deacylase sirtuin-5, mitochondrial; assay: Competitive inhibition of human recombinant SIRT5 (34 to 269 residues) incubated for 2 hrs in presence of 300 uM of fluorogenic substrate Ac-Leu-Gly-Ser-Lys (Su)-AMC by fluorescence based analysis
[11] = target: T2, NAD-dependent protein deacetylase sirtuin-1 (Homo sapiens, UniProt Q96EB6); assay: Inhibition of recombinant SIRT1 (unknown origin) using Ac-Arg-Leu-Ile-Lys-(Ac) AMC as substrate in presence of NAD+
T2 sequence (Q96EB6 whole entry): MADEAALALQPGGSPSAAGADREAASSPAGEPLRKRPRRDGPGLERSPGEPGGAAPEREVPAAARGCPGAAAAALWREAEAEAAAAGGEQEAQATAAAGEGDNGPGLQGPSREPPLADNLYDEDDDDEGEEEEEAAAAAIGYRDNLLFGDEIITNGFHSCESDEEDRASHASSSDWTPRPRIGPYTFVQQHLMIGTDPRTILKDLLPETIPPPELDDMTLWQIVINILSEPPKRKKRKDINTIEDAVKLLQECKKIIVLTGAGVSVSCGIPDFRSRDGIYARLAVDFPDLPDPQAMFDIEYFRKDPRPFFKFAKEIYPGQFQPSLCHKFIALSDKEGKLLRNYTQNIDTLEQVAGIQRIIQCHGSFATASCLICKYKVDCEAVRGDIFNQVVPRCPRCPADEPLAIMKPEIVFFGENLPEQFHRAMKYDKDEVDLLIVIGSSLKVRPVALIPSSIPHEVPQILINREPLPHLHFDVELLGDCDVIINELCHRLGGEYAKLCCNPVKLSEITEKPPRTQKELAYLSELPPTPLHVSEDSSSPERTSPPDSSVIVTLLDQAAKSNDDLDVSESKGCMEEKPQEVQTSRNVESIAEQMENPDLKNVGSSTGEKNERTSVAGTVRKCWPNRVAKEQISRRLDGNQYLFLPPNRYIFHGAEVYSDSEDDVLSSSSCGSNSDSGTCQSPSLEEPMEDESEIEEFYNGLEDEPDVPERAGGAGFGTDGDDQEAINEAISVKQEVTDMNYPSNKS

[12] = target: T3, NAD-dependent protein deacetylase sirtuin-2 (Homo sapiens, UniProt Q8IXJ6); assay: Inhibition of human recombinant SIRT2 using Ac-Glu-Thr-Asp-Lys (Dec)-AM as substrate in presence of NAD+
T3 sequence (Q8IXJ6 whole entry): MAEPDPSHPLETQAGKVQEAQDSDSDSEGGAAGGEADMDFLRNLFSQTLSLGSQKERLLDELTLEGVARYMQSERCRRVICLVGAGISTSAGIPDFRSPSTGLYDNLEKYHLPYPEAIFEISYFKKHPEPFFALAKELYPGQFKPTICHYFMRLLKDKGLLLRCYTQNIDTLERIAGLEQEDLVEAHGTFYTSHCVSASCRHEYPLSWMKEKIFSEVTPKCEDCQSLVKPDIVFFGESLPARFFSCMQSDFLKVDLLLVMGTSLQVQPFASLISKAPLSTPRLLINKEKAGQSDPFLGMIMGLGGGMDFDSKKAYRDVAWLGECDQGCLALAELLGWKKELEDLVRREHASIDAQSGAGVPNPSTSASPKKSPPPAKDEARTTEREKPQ

[13] = target: T1, NAD-dependent protein deacylase sirtuin-5, mitochondrial; assay: Competitive inhibition of human recombinant SIRT5 (34 to 269 residues) using Ac-Leu-GlySer-Lys (Su)-AMC as substrate at 0 to 50 uM by Lineweaver-Burk plot analysis; conditions: dose 0-50 µM
Target sequence in this assay (Q9NXA8 37-310 limits assumed): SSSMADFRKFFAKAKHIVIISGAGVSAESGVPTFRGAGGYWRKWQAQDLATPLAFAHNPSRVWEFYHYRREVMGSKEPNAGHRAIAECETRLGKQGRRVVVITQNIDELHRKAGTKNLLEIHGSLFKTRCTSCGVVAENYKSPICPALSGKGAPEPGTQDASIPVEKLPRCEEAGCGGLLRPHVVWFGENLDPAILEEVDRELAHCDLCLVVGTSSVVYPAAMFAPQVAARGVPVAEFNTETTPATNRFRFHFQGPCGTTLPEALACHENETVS

[14] = target: T1, NAD-dependent protein deacylase sirtuin-5, mitochondrial; assay: Binding affinity to human recombinant SIRT5 (34 to 269 residues) assessed as thermal stabilization by measuring change in melting temperature at 50 uM and measured after 10 mins by SYPRO orange dye based thermal shift assay
Target sequence in this assay (Q9NXA8 37-310 limits assumed): as above

[15] = target: T1, NAD-dependent protein deacylase sirtuin-5, mitochondrial; assay: Binding affinity to human recombinant SIRT5 (34 to 269 residues) assessed as thermal stabilization by measuring change in melting temperature at 100 uM and measured after 10 mins by SYPRO orange dye based thermal shift assay
Target sequence in this assay (Q9NXA8 37-310 limits assumed): as above

[16] = target: T1, NAD-dependent protein deacylase sirtuin-5, mitochondrial; assay: Binding affinity to human recombinant SIRT5 (34 to 269 residues) assessed as thermal stabilization by measuring melting temperature at 50 uM and measured after 10 mins by SYPRO orange dye based thermal shift assay
Target sequence in this assay (Q9NXA8 37-310 limits assumed): as above

[17] = target: T1, NAD-dependent protein deacylase sirtuin-5, mitochondrial; assay: Binding affinity to human recombinant SIRT5 (34 to 269 residues) assessed as thermal stabilization by measuring melting temperature at 100 uM and measured after 10 mins by SYPRO orange dye based thermal shift assay
Target sequence in this assay (Q9NXA8 37-310 limits assumed): as above

Compound `O=C(O)CCNC(=S)NCCCNc1nc(Nc2ccccc2)nc(Nc2ccccc2Cl)n1` has an IC50 [1] of 5.38 µM, an IC50 [2] of 2.27 µM and an IC50 [3] of 3.35 µM. The IC50 [4] was 4.68 µM, the IC50 [5] was 4.05 µM and the IC50 [6] was 6.74 µM. It also gave an IC50 [7] of 3.21 µM, an IC50 [8] of 5.88 µM and an IC50 [9] of 14.2 µM. The IC50 [10] was 29.6 µM, the IC50 [11] was 21.9 µM and the IC50 [12] was 136 µM.

With `O=C(O)CCNC(=S)NCCCNc1nc(Nc2ccccc2Cl)nc(NC2CC2)n1` the IC50 [1] was 18.2 µM.

`CC(CCc1ccccc1)Nc1nc(NCCCNC(=S)NCCC(=O)O)nc(Nc2ccccc2Cl)n1` (stereo unspecified) was tested, and the IC50 [1] was 27 µM.

`O=C(O)CCNC(=S)NCCCNc1nc(Nc2ccccc2Cl)nc(NC2CCCC2)n1` was tested, and the IC50 [1] was 19.4 µM.

`Cc1c(Br)cccc1Nc1nc(NCCCNC(=S)NCCC(=O)O)nc(Nc2ccccc2Cl)n1` showed an IC50 [1] of 49.9 µM.

`O=C(O)CCNC(=S)NCCCNc1nc(NCCc2ccccc2)nc(Nc2ccccc2Cl)n1` gave an IC50 [1] of 6.97 µM.

`O=C(O)CCNC(=S)NCCCNc1nc(Nc2ccccc2Cl)nc(N2CCCC2c2ccccc2)n1` (stereo unspecified) was tested, and the IC50 [1] was 13 µM.

Work on `O=C(O)CCNC(=S)NCCCNc1nc(Nc2ccccc2Cl)nc(NC2CCC2)n1` yielded an IC50 [1] of 25.1 µM.

`CC[C@H](Nc1nc(NCCCNC(=S)NCCC(=O)O)nc(Nc2ccccc2Cl)n1)c1ccccc1` showed an IC50 [1] of 9.43 µM.

Compound `CC(C)(C)OC(=O)[C@H](Nc1nc(NCCCNC(=S)NCCC(=O)O)nc(Nc2ccccc2Cl)n1)c1ccccc1` has an IC50 [1] of 21.5 µM.

`O=C(O)CCNC(=S)NCCCNc1nc(NCc2ccccc2)nc(Nc2ccccc2Cl)n1` was tested, and the IC50 [1] was 14.5 µM.

Compound `O=C(O)CCNC(=S)NCCCNc1nc(Nc2cc(F)cc(F)c2)nc(Nc2ccccc2Cl)n1` has an IC50 [1] of 21.4 µM.

With `COc1cc(Nc2nc(NCCCNC(=S)NCCC(=O)O)nc(Nc3ccccc3Cl)n2)cc(OC)c1` the IC50 [1] was 4.07 µM, the IC50 [2] was 4.77 µM and the IC50 [3] was 4.83 µM. The IC50 [4] was 3.27 µM, the IC50 [5] was 3.48 µM and the IC50 [6] was 4.66 µM. The IC50 [7] was 7.93 µM, the IC50 [8] was 14.3 µM and the IC50 [9] was 29.2 µM. The IC50 [10] was 42.5 µM, the inhibition [13] was “Active” and the ΔTm [14] was 2.91 °C. The ΔTm [15] was 3.29 °C, the Tm [16] was 69.4 °C and the Tm [17] was 69.7 °C. It also gave an IC50 [11] of 95.9 µM and an IC50 [12] of 111 µM.

In the case of `Cc1cccc(Nc2nc(NCCCNC(=S)NCCC(=O)O)nc(Nc3ccccc3Cl)n2)c1Br`, the IC50 [1] is reported as 6.16 µM.
